Data on two compounds can be found in PMC9304322, “Targeting retinoic acid receptor alpha-corepressor interaction activates chaperone-mediated autophagy and protects against retinal degeneration” (Nature Communications, 2022).

Values joined by “and” are separate entries in the source; they are usually repeats but may differ in a detail not shown here. Equal values may be shown once.

The subject of one data set is NIH3T3. Description: Cell viability after paraquat (CellTiter-Blue). Type of data set: cell-based, mouse.
Data set [1] has as its system rd10 mice. Particulars: mouse, in vivo, ip, 40 mg/kg.
In data set [2] the test system is rd10 mice. Description: rd10 mice, single intravitreal injection, retina histology. The data set is classed as in vivo, mouse. As to the method: (§1) C57BL/6 J mice wild-type (WT) and homozygous for the Pde6 mutation (rd10 mouse model of retinal degeneration) were obtained from The Jackson Laboratory and experiments were performed at the age indicated in each part of the study. C57BL/6 KFERQ-Dendra mice were generated by back-crossing FVB KFERQ-Dendra mice with wild-type C57BL/6 mice for 8 generations. Both male and female animals were used in this study in equally distribution groups. However, results from both sexes were pooled, because of absence of significant differences in any of the parameters analyzed after statistical analysis with a mixed model of two-way ANOVA sex and treatment as independent variables and the corresponding measure as dependent variable. All animals were housed in a barrier-controlled facility (19–23 °C 30–60% relative humidity; 12 h light/dark cycle) with ad libitum access to standard chow pellets (protein 19 gm%/carbohydrate 67 gm%/fat 4 gm%) and water. For animal administration of CA compounds, a formula containing 30% PEG 400 (Sigma, #8.0745), 65% of 5% glucose solution, 5% Tween 80 (Sigma, #P1754) was used to dissolve them. CA compounds were prepared freshly by adding 5% DMSO and sonicating for 1 h. Treatment of KFERQ-Dendra mice with the CA compounds was done at 4 months of age by i.p. daily injection of 30 mg/kg bw or vehicle for three consecutive days and tissues collected 6 h after the last injection. In the case of rd10 mice, animals were daily injected from P18 to P25 with CA77 (40 mg/kg bw). In the case of intravitreal administration, a single intravitreal injection was applied at P18 with CA77 (40 µM) in DMSO/PBS and the contralateral eye was injected with PBS and DMSO at same concentration. At P26, mice were sacrificed and eyes fixed overnight with 4% PFA (Sigma, #P6148) in PBS at 4 °C for immunofluorescence or retinas dissected and immediately frozen for biochemistry. Distribution of animals in the vehicle or treatment group was done randomly. ICR (CD-1) outbred 3 months old male mice from ENVIGO were used for the pharmacokinetic studies (see pharmacokinetic section for housing and handling details). All animal studies and procedures complied with ethical regulations, were performed in accordance with the European Union guidelines and the ARVO Statement for the Use of Animals in Ophthalmic and Vision Research and were approved by the Institutional Animal Care and Use Committee at the Albert Einstein College of Medicine, the CSIC Bioetica Comite and approved by the Comunidad de Madrid, PROEX232/17.
(§2) 12 μm cryosections and immunofluorescence in retinal sections[10] after orienting retinas with a dorsal mark, so comparisons were performed taking into account the precise retinal area. Primary antibodies used in this study were visual (rod) arrestin, cone arrestin, Opsin R/G, transducin, GFAP, N-CoR1. Sections were visualized by confocal microscopy (TCS SP5; Leica Microsystems).
(§3) For ONL thickness quantification, DAPI images were taken at 40X in a fluorescence microscope Multidimensional system Leica AF6000 LX coupled to DMI600B microscope and Hamamatsu CCD 9100-O2 camera. At least two sections per animal were analyzed, preferably central sections. Eight images per retina equally distributed along the retina were acquired. Three measures were taken per image and ratio ONL/INL quantified with ImageJ tools. Leica LAS-X (3.7.4.23463) was used for image acquisition and ImageJ (v.2.1.0) was used for image processing. For OS length measures, fixed positions common to all pictures were considered and OS length was measured using ImageJ straight line tool.
Eyes were enucleated, put in a plate with cold PBS and an incision was made under the microscope to let the fixative enter into the eye. […]

The subject of data set [3] is rd10 mice. Description: rd10 mice, daily i.p. injection, retina histology and biochemistry. Type of data set: in vivo, mouse. Conditions: daily i.p. 40 mg/kg bw, P18 to P25. As to the method:
as §1, §2, §3
RNA was extracted from individual retinas or tissue sections (brain, liver). Total RNA from retinas was extracted using TRIzol Reagent (Invitrogen, # 15596-018), and reverse transcription was performed using the High-Capacity cDNA Reverse Transcription Kit (Applied Biosystems, # 4374966) according to the manufacturer’s instructions. […]

Where [4] appears, read: rd10 mice, 7 days after a single intravitreal injection (40 µM) at P18.
Setting [5] is: rd10 mice, individual values and Mean CA77.

Turning to `Clc1ccc2c(c1)OCC(c1ccc(-c3ccccc3)cc1)=N2` [CA39], in the data set on NIH3T3 (2 μM or 10 μM, compared with AR7), the “protection against paraquat, compound added after the insult” value is listed as “significantly higher protection than AR7”. For the same compound, the “cell death by paraquat, compound administered before the insult” value in the data set with NIH3T3 (12 h treatment with 2 μM or 10 μM before PQ) is “reduced cell death”.
For the compound `CC(=O)Nc1ccc(C2=Nc3ccc(Cl)cc3OC2)cc1` [CA77], in the data set with rd10 mice [1], the “ERG amplitude of b-mixed, b-phot and flicker waves” value is given as “significantly higher amplitude”. Besides, in the data set with rd10 mice [2] (Fig. S9c, individual animals), the ONL/INL is 0.8086 and 0.8292 and 0.9847. Also, the “ONL/INL, mean” value with rd10 mice [2] (Fig. S9c, mean, veh 0.676) is recorded as 0.8578. For the same compound, the “%functional cones” value in the data set on rd10 mice [2] (Fig. S9d, individual animals) is 28.972% and 50% and 24.2991% and 28.7037% and 13.3929% and 16.5289% and 21.8182%. Besides, the “%functional cones, mean” value in the data set with rd10 mice [2] (Fig. S9d, mean, veh 10.94) is reported as 26.24%. In the data set on rd10 mice [2] (setting [4]), the gliosis result is “significatively improved” and the “retinal ONL/INL ratio” value is “thicker retinal ONL/INL ratio”. Besides, in the data set with rd10 mice [2] (setting [5]), the “Fig. 7a, retinal measurement by eccentricity, eccentricity 1” value was found to be 0.3526; the “Fig. 7a, retinal measurement by eccentricity, eccentricity 2” value is recorded as 0.3984; the “Fig. 7a, retinal measurement by eccentricity, eccentricity 3” value amounted to 0.5851; the “Fig. 7a, retinal measurement by eccentricity, eccentricity 4” value was determined as 0.8477. In addition, in the data set on rd10 mice [2] (setting [5]), the “Fig. 7a, retinal measurement by eccentricity, eccentricity -1” value amounted to 0.3423; the “Fig. 7a, retinal measurement by eccentricity, eccentricity -2” value is 0.3489; the “Fig. 7a, retinal measurement by eccentricity, eccentricity -3” value amounted to 0.5902. For the same compound, the “expression levels of NCOR1” value in the data set with rd10 mice [3] (WT and rd10 mice) is reported as “did not change the expression levels of NCOR1”. In the data set on rd10 mice [3] (rd10 mice), the “mRNA levels of photoreceptor-specific proteins (rhodopsin)” value is listed as “Higher mRNA levels of photoreceptor-specific proteins”, the “outer nuclear layer (ONL) thickness” value is “significantly thicker outer nuclear layers”, the “retinal GFAP levels” value is on record as “strikingly lower levels of GFAP” and the “retinal L2A levels by immunoblot” value was “significantly increasing retinal levels of the limiting CMA component”. The “length of the outer segments of photoreceptors” value with rd10 mice [3] (rd10 mice, vs vehicle) was “increased length of the outer segments of photoreceptors”.
